Results reported in PubChem BioAssay (NCI).
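Five concentrations, 48 hours, 96-well plates. TGI marks complete inhibition of growth.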

Key:
Assay in all cases: NCI-60 cell line screen, 48 h
SF-268 CNS = test system: SF-268 CNS
NCI-H226 lung = test system: NCI-H226 lung
MDA-MB-435 = test system: MDA-MB-435
DU-145 prostate = test system: DU-145 prostate
CCRF-CEM leukemia = test system: CCRF-CEM leukemia
LOX IMVI melanoma = test system: LOX IMVI melanoma
U251 CNS = test system: U251 CNS
HS 578T breast = test system: HS 578T breast
NCI-H460 lung = test system: NCI-H460 lung
MOLT-4 leukemia = test system: MOLT-4 leukemia
COLO 205 colon = test system: COLO 205 colon
HL-60(TB) leukemia = test system: HL-60(TB) leukemia
SNB-75 CNS = test system: SNB-75 CNS
HT29 colon = test system: HT29 colon
KM12 colon = test system: KM12 colon
SK-MEL-28 melanoma = test system: SK-MEL-28 melanoma
MDA-MB-231 breast = test system: MDA-MB-231 breast
UO-31 renal = test system: UO-31 renal
NCI/ADR-RES ovarian = test system: NCI/ADR-RES ovarian
SR leukemia = test system: SR leukemia
SK-MEL-5 melanoma = test system: SK-MEL-5 melanoma
OVCAR-8 ovarian = test system: OVCAR-8 ovarian
MCF7 breast = test system: MCF7 breast
IGROV1 ovarian = test system: IGROV1 ovarian
TK-10 renal = test system: TK-10 renal
HOP-62 NSCLC = test system: HOP-62 NSCLC
RXF 393 renal = test system: RXF 393 renal
UACC-62 melanoma = test system: UACC-62 melanoma
BT-549 breast = test system: BT-549 breast
K-562 leukemia = test system: K-562 leukemia
HCT-116 colon = test system: HCT-116 colon
OVCAR-3 ovarian = test system: OVCAR-3 ovarian
ACHN renal = test system: ACHN renal
SK-MEL-2 melanoma = test system: SK-MEL-2 melanoma
NCI-H522 lung = test system: NCI-H522 lung
EKVX NSCLC = test system: EKVX NSCLC
SN12C renal = test system: SN12C renal
786-0 renal = test system: 786-0 renal
SW-620 colon = test system: SW-620 colon
NCI-H23 lung = test system: NCI-H23 lung
OVCAR-5 ovarian = test system: OVCAR-5 ovarian
RPMI-8226 leukemia = test system: RPMI-8226 leukemia
PC-3 prostate = test system: PC-3 prostate
SNB-19 CNS = test system: SNB-19 CNS
HCC-2998 colon = test system: HCC-2998 colon
UACC-257 melanoma = test system: UACC-257 melanoma
M14 melanoma = test system: M14 melanoma
MDA-N = test system: MDA-N
HCT-15 colon = test system: HCT-15 colon
MALME-3M melanoma = test system: MALME-3M melanoma
SF-539 CNS = test system: SF-539 CNS
A549 NSCLC = test system: A549 NSCLC
SF-295 CNS = test system: SF-295 CNS
A498 renal = test system: A498 renal
OVCAR-4 ovarian = test system: OVCAR-4 ovarian
SK-OV-3 ovarian = test system: SK-OV-3 ovarian
CAKI-1 renal = test system: CAKI-1 renal
HOP-92 NSCLC = test system: HOP-92 NSCLC

CCCCNc1nc(N)nc(Nc2ccc(Br)cc2)c1N=O
TGI (SF-268 CNS): > 100 µM
TGI (NCI-H226 lung): > 100 µM
TGI (MDA-MB-435): > 100 µM
TGI (DU-145 prostate): > 100 µM
TGI (CCRF-CEM leukemia): > 100 µM
TGI (LOX IMVI melanoma): > 100 µM
TGI (U251 CNS): > 100 µM
TGI (HS 578T breast): 82.8 µM
TGI (NCI-H460 lung): > 100 µM
TGI (MOLT-4 leukemia): > 100 µM
TGI (COLO 205 colon): > 100 µM
TGI (HL-60(TB) leukemia): > 100 µM
TGI (SNB-75 CNS): > 100 µM
TGI (HT29 colon): > 100 µM
TGI (KM12 colon): > 100 µM
TGI (SK-MEL-28 melanoma): > 100 µM
TGI (MDA-MB-231 breast): > 100 µM
TGI (UO-31 renal): > 100 µM
TGI (NCI/ADR-RES ovarian): > 100 µM
TGI (SR leukemia): > 100 µM
TGI (SK-MEL-5 melanoma): > 100 µM
TGI (OVCAR-8 ovarian): > 100 µM
TGI (MCF7 breast): > 100 µM
TGI (IGROV1 ovarian): > 100 µM
TGI (TK-10 renal): > 100 µM
TGI (HOP-62 NSCLC): > 100 µM
TGI (RXF 393 renal): > 100 µM
TGI (UACC-62 melanoma): > 100 µM
TGI (BT-549 breast): > 100 µM
TGI (K-562 leukemia): > 100 µM
TGI (HCT-116 colon): > 100 µM
TGI (OVCAR-3 ovarian): > 100 µM
TGI (ACHN renal): > 100 µM
TGI (SK-MEL-2 melanoma): > 100 µM
TGI (NCI-H522 lung): > 100 µM
TGI (EKVX NSCLC): > 100 µM
TGI (SN12C renal): > 100 µM
TGI (786-0 renal): > 100 µM
TGI (SW-620 colon): > 100 µM
TGI (NCI-H23 lung): > 100 µM
TGI (OVCAR-5 ovarian): > 100 µM
TGI (RPMI-8226 leukemia): > 100 µM
TGI (PC-3 prostate): > 100 µM
TGI (SNB-19 CNS): > 100 µM
TGI (HCC-2998 colon): > 100 µM
TGI (UACC-257 melanoma): > 100 µM
TGI (M14 melanoma): > 100 µM
TGI (MDA-N): > 100 µM
TGI (HCT-15 colon): > 100 µM
TGI (MALME-3M melanoma): > 100 µM
TGI (SF-539 CNS): > 100 µM
TGI (A549 NSCLC): > 100 µM

NC(=O)N/N=C\c1ccccc1OCc1cccc(COc2ccccc2/C=N\NC(N)=O)n1
TGI (SF-268 CNS): 88.6 µM
TGI (SF-295 CNS): 33.8 µM
TGI (NCI-H226 lung): > 100 µM
TGI (MDA-MB-435): > 100 µM
TGI (DU-145 prostate): 47.7 µM
TGI (CCRF-CEM leukemia): > 100 µM
TGI (LOX IMVI melanoma): > 100 µM
TGI (U251 CNS): 18.7 µM
TGI (HS 578T breast): > 100 µM
TGI (NCI-H460 lung): > 100 µM
TGI (A498 renal): > 100 µM
TGI (MOLT-4 leukemia): > 100 µM
TGI (COLO 205 colon): > 100 µM
TGI (HL-60(TB) leukemia): > 100 µM
TGI (HT29 colon): > 100 µM
TGI (KM12 colon): > 100 µM
TGI (SK-MEL-28 melanoma): > 100 µM
TGI (MDA-MB-231 breast): 32.8 µM
TGI (UO-31 renal): > 100 µM
TGI (NCI/ADR-RES ovarian): > 100 µM
TGI (SK-MEL-5 melanoma): > 100 µM
TGI (OVCAR-8 ovarian): > 100 µM
TGI (MCF7 breast): > 100 µM
TGI (IGROV1 ovarian): > 100 µM
TGI (TK-10 renal): 85.6 µM
TGI (HOP-62 NSCLC): 27 µM
TGI (RXF 393 renal): 31.5 µM
TGI (UACC-62 melanoma): 51.6 µM
TGI (BT-549 breast): 81.8 µM
TGI (K-562 leukemia): > 100 µM
TGI (HCT-116 colon): > 100 µM
TGI (OVCAR-3 ovarian): > 100 µM
TGI (OVCAR-4 ovarian): > 100 µM
TGI (ACHN renal): > 100 µM
TGI (SK-MEL-2 melanoma): > 100 µM
TGI (NCI-H522 lung): > 100 µM
TGI (EKVX NSCLC): 69.5 µM
TGI (SN12C renal): > 100 µM
TGI (786-0 renal): > 100 µM
TGI (SK-OV-3 ovarian): 49.9 µM
TGI (SW-620 colon): > 100 µM
TGI (NCI-H23 lung): > 100 µM
TGI (OVCAR-5 ovarian): > 100 µM
TGI (CAKI-1 renal): > 100 µM
TGI (HOP-92 NSCLC): 55.6 µM
TGI (RPMI-8226 leukemia): > 100 µM
TGI (PC-3 prostate): > 100 µM
TGI (SNB-19 CNS): > 100 µM
TGI (HCC-2998 colon): > 100 µM
TGI (UACC-257 melanoma): > 100 µM
TGI (M14 melanoma): > 100 µM
TGI (MDA-N): > 100 µM
TGI (HCT-15 colon): > 100 µM
TGI (MALME-3M melanoma): > 100 µM
TGI (SF-539 CNS): 47.9 µM
TGI (A549 NSCLC): > 100 µM

CCOP(=O)(OCC)/C(C#N)=C/c1cnc(C)[nH]1
TGI (SF-268 CNS): > 100 µM
TGI (SF-295 CNS): > 100 µM
TGI (NCI-H226 lung): > 100 µM
TGI (MDA-MB-435): > 100 µM
TGI (DU-145 prostate): > 100 µM
TGI (CCRF-CEM leukemia): > 100 µM
TGI (LOX IMVI melanoma): > 100 µM
TGI (U251 CNS): > 100 µM
TGI (HS 578T breast): > 100 µM
TGI (NCI-H460 lung): > 100 µM
TGI (A498 renal): > 100 µM
TGI (MOLT-4 leukemia): > 100 µM
TGI (COLO 205 colon): > 100 µM
TGI (HL-60(TB) leukemia): > 100 µM
TGI (SNB-75 CNS): > 100 µM
TGI (HT29 colon): > 100 µM
TGI (KM12 colon): > 100 µM
TGI (SK-MEL-28 melanoma): > 100 µM
TGI (MDA-MB-231 breast): > 100 µM
TGI (UO-31 renal): > 100 µM
TGI (NCI/ADR-RES ovarian): > 100 µM
TGI (SR leukemia): > 100 µM
TGI (SK-MEL-5 melanoma): > 100 µM
TGI (OVCAR-8 ovarian): > 100 µM
TGI (MCF7 breast): > 100 µM
TGI (IGROV1 ovarian): > 100 µM
TGI (TK-10 renal): > 100 µM
TGI (HOP-62 NSCLC): > 100 µM
TGI (RXF 393 renal): > 100 µM
TGI (UACC-62 melanoma): > 100 µM
TGI (BT-549 breast): > 100 µM
TGI (K-562 leukemia): > 100 µM
TGI (HCT-116 colon): > 100 µM
TGI (OVCAR-3 ovarian): > 100 µM
TGI (OVCAR-4 ovarian): > 100 µM
TGI (ACHN renal): > 100 µM
TGI (SK-MEL-2 melanoma): > 100 µM
TGI (NCI-H522 lung): > 100 µM
TGI (EKVX NSCLC): > 100 µM
TGI (SN12C renal): > 100 µM
TGI (786-0 renal): > 100 µM
TGI (SK-OV-3 ovarian): > 100 µM
TGI (SW-620 colon): > 100 µM
TGI (NCI-H23 lung): > 100 µM
TGI (OVCAR-5 ovarian): > 100 µM
TGI (CAKI-1 renal): > 100 µM
TGI (HOP-92 NSCLC): > 100 µM
TGI (RPMI-8226 leukemia): > 100 µM
TGI (PC-3 prostate): > 100 µM
TGI (SNB-19 CNS): > 100 µM
TGI (HCC-2998 colon): > 100 µM
TGI (UACC-257 melanoma): > 100 µM
TGI (M14 melanoma): > 100 µM
TGI (MDA-N): > 100 µM
TGI (HCT-15 colon): > 100 µM
TGI (MALME-3M melanoma): > 100 µM
TGI (SF-539 CNS): > 100 µM
TGI (A549 NSCLC): > 100 µM
